Experimental data published in patent US20100210602A1, “PhoU (PerF), A P[…] INVOLVED IN [sequence] FORMATION AND TOLERANCE TO MULTIPLE ANTIBIOTICS AND [sequence] AS A DRUG TARGET FOR [sequence] BACTERIA” (priority 2006, published 2010).
≈ marks a conversion by molar mass, not a printed value. Read-outs that look alike come from different tables or passages of the source.

How the values were obtained:
wild type strain W3110 [1] = assay: microbe, parasite or virus in culture; type: cell-based, E. coli; settings: Escherichia coli
JHU-313 containing pPhoU [2] = assay: Kirby-Bauer paper disc assay, zone inhibition; settings: Escherichia coli, read-out: zone inhibition
[3] = test system: JHU-313 containing pVector; assay: Kirby-Bauer paper disc assay, zone inhibition; settings: Escherichia coli, read-out: zone inhibition
W3110 = assay: microbe, parasite or virus in culture; settings: Escherichia coli, read-out: zone inhibition
wild type strain W3110 [4] = type: cell-based, E. coli
PhoU mutant (JHU-313) [5] = assay: Sequential antibiotic exposure of ampicillin persisters (CFU); type: cell-based, E. coli
PhoU mutant (JHU-313) [6] = assay: MIC/MBC by serial two-fold dilutions in LB broth; type: cell-based, E. coli; settings: Escherichia coli, 16 h at 37° C.; for MBC: read-out: MBC; for MIC: read-out: MIC
[7] = test system: PhoU deletion mutant (ΔphoU); type: cell-based
wild type strain W3110 [8] = type: cell-based
JHU-313 containing pPhoU [9] = assay: MIC/MBC by serial two-fold dilutions in LB broth; type: cell-based, E. coli; settings: Escherichia coli, 16 h at 37° C.; for MBC: read-out: MBC; for MIC: read-out: MIC
[10] = test system: PhoU transposon mutant (JHU-313); type: cell-based
JHU-313 = assay: Kirby-Bauer paper disc assay, zone inhibition; settings: Escherichia coli, read-out: zone inhibition
[11] = test system: JHU-313 containing pVector; assay: MIC/MBC by serial two-fold dilutions in LB broth; type: cell-based, E. coli; settings: Escherichia coli, 16 h at 37° C.; for MBC: read-out: MBC; for MIC: read-out: MIC
[12] = 20 h after 1.5 h ampicillin pre-exposure, ampicillin 100, gentamicin 20, trimethoprim 16, norfloxacin 5 μg/ml
[13] = log phase, ampicillin 100 μg/ml, 1.5 h
[14] = log phase, 1 week, Ap100, Norf3
[15] = log phase, 5 hr, ampicillin 100 μg/ml (Ap100), norfloxacin 3 μg/ml (Norf3)
[16] = log phase, 3 days, Ap100, Norf3
[17] = log phase, 5 days, Ap100, Norf3
[18] = log phase, 10 days, Ap100, Norf3
[19] = log phase, ampicillin 100 μg/ml, norfloxacin 3 μg/ml
[20] = stationary phase, 1 week, Ap100, Norf3
[21] = stationary phase, 5 hr, ampicillin 100 μg/ml (Ap100), norfloxacin 3 μg/ml (Norf3)
[22] = stationary phase, 3 days, Ap100, Norf3
[23] = stationary phase, 5 days, Ap100, Norf3
[24] = stationary phase, 10 days, Ap100, Norf3
[25] = log phase, 100 μg/ml, 24 hr exposure
[26] = stationary phase, 100 μg/ml, 72 hr
[27] = stationary phase, 1 day, Ap100, Norf3

## CC1(C)S[C@@H]2[C@H](NC(=O)[C@H](N)c3ccccc3)C(=O)N2[C@H]1C(=O)O [Ampicillin, ampicillin]
Wild type strain W3110 [1]; W3110, LB broth, 16 h at 37° C., read-out: MBC
  MBC: 12.5 µg/mL (≈ 35.8 µM)
Wild type strain W3110 [1]; W3110, LB broth, 16 h at 37° C., read-out: MIC
  MIC: 3.1 µg/mL (≈ 8.87 µM)
JHU-313 containing pPhoU [2]
  zone of inhibition at 1.5 µg/mL: 25 mm
  zone of inhibition at 6 µg/mL: 32 mm
  zone of inhibition at 25 µg/mL: 36 mm
  zone of inhibition at 100 µg/mL: 40 mm
[3]
  zone of inhibition at 1.5 µg/mL: 27 mm
  zone of inhibition at 6 µg/mL: 34 mm
  zone of inhibition at 25 µg/mL: 40 mm
  zone of inhibition at 100 µg/mL: 45 mm
W3110
  zone of inhibition at 1.5 µg/mL: 21 mm
  zone of inhibition at 6 µg/mL: 25 mm
  zone of inhibition at 25 µg/mL: 28 mm
  zone of inhibition at 100 µg/mL: 35 mm
Wild type strain W3110 [4]; [12]
  CFU after second antibiotic exposure: 7 × 10^5 CFU/ml
Wild type strain W3110 [4]; log phase, 100 μg/ml, 1.5 hr
  decrease in CFU count: 3 log
Wild type strain W3110 [4]; [13]
  CFU after ampicillin treatment: 7 × 10^4 CFU/ml
PhoU mutant (JHU-313) [5]; [12]
  CFU after second antibiotic exposure: 0 CFU/ml
PhoU mutant (JHU-313) [5]; log phase, 100 μg/ml, 1.5 hr
  decrease in CFU count: 3 log
PhoU mutant (JHU-313) [5]; [13]
  CFU after ampicillin treatment: 4 × 10^4 CFU/ml
PhoU mutant (JHU-313) [6]
  MBC: 6.25 µg/mL (≈ 17.9 µM)
  MIC: 1.5 µg/mL (≈ 4.29 µM)
[7]; [14]
  CFU: 0 CFU
[7]; [15]
  CFU: 6 × 10^2 CFU
[7]; log phase, 1 day, Ap100, Norf3
  CFU: 0-1 CFU
[7]; [16]
  CFU: 0 CFU
[7]; [17]
  CFU: 0 CFU
[7]; [18]
  CFU: 0 CFU
[7]; [19]
  time to killing of all cells: all cells were killed by three days
[7]; [20]
  CFU: 0 CFU
[7]; [21]
  CFU: 6 × 10^8 CFU
[7]; [22]
  CFU: 0 CFU
[7]; [23]
  CFU: 0 CFU
[7]; [24]
  CFU: 0 CFU
Wild type strain W3110 [8]; [25]
  viable bacteria left: 10-100
Wild type strain W3110 [8]; [14]
  CFU: 0 CFU
Wild type strain W3110 [8]; [15]
  CFU: 3 × 10^3 CFU
Wild type strain W3110 [8]; log phase, 1 day, Ap100, Norf3
  CFU: 10 CFU
Wild type strain W3110 [8]; [16]
  CFU: 0 CFU
Wild type strain W3110 [8]; [17]
  CFU: 0 CFU
Wild type strain W3110 [8]; [18]
  CFU: 0 CFU
Wild type strain W3110 [8]; [19]
  time to killing of all cells: all cells were killed by three days
Wild type strain W3110 [8]; [26]
  viable cells: 10^8 CFU/ml
Wild type strain W3110 [8]; [20]
  CFU: 5 × 10^6 CFU
Wild type strain W3110 [8]; [21]
  CFU: 5 × 10^9 CFU
Wild type strain W3110 [8]; [27]
  CFU: 3 × 10^9 CFU
Wild type strain W3110 [8]; [22]
  CFU: 1 × 10^8 CFU
Wild type strain W3110 [8]; [23]
  CFU: 3 × 10^7 CFU
Wild type strain W3110 [8]; [24]
  CFU: 2 × 10^5 CFU
JHU-313 containing pPhoU [9]
  MBC: 12.5 µg/mL (≈ 35.8 µM)
  MIC: 3.1 µg/mL (≈ 8.87 µM)
[10]; log phase, 100 μg/ml, 3 hr
  killed more than the wild type strain: about 100 fold
[10]; [25]
  viable cells remaining: no viable cells remained
[10]; [14]
  CFU: 0 CFU
[10]; [15]
  CFU: 20 CFU
[10]; log phase, 1 day, Ap100, Norf3
  CFU: 0-1 CFU
[10]; [16]
  CFU: 0 CFU
[10]; [17]
  CFU: 0 CFU
[10]; [18]
  CFU: 0 CFU
[10]; [19]
  time to killing of all cells: all cells were killed by three days
[10]; [26]
  sterilization of culture: completely sterilized
[10]; [20]
  CFU: 0 CFU
[10]; [21]
  CFU: 2 × 10^8 CFU
[10]; [27]
  CFU: 1 × 10^7 CFU
[10]; [22]
  CFU: 0 CFU
[10]; [23]
  CFU: 0 CFU
[10]; [24]
  CFU: 0 CFU
JHU-313
  zone of inhibition at 1.5 µg/mL: 25 mm
  zone of inhibition at 6 µg/mL: 30 mm
  zone of inhibition at 25 µg/mL: 35 mm
  zone of inhibition at 100 µg/mL: 40 mm
[11]
  MBC: 6.25 µg/mL (≈ 17.9 µM)
  MIC: 3.1 µg/mL (≈ 8.87 µM)

## CN(C)[C@@H]1C(O)=C(C(N)=O)C(=O)[C@@]2(O)C(O)=C3C(=O)c4c(O)cccc4[C@@](C)(O)[C@H]3C[C@@H]12 [Tetracycline]
JHU-313 containing pPhoU [2]
  zone of inhibition at 12.5 µg/mL: 30 mm
  zone of inhibition at 25 µg/mL: 32 mm
  zone of inhibition at 50 µg/mL: 32 mm
[3]
  zone of inhibition at 12.5 µg/mL: 34 mm
  zone of inhibition at 25 µg/mL: 34 mm
  zone of inhibition at 50 µg/mL: 34 mm
W3110
  zone of inhibition at 12.5 µg/mL: 22 mm
  zone of inhibition at 25 µg/mL: 23 mm
  zone of inhibition at 50 µg/mL: 23 mm
JHU-313
  zone of inhibition at 12.5 µg/mL: 26 mm
  zone of inhibition at 25 µg/mL: 32 mm
  zone of inhibition at 50 µg/mL: 32 mm

## COc1cc(Cc2cnc(N)nc2N)cc(OC)c1OC [Trimethoprim, trimethoprim]
Wild type strain W3110 [1]; W3110, 16 h
  MBC: 8 µg/mL (≈ 27.6 µM)
  MIC: 2 µg/mL (≈ 6.89 µM)
JHU-313 containing pPhoU [2]
  zone of inhibition at 0.5 µg/mL: 32 mm
  zone of inhibition at 1 µg/mL: 33 mm
  zone of inhibition at 2 µg/mL: 36 mm
[3]
  zone of inhibition at 0.5 µg/mL: 36 mm
  zone of inhibition at 1 µg/mL: 40 mm
  zone of inhibition at 2 µg/mL: 44 mm
W3110
  zone of inhibition at 0.5 µg/mL: 24 mm
  zone of inhibition at 1 µg/mL: 26 mm
  zone of inhibition at 2 µg/mL: 30 mm
PhoU mutant (JHU-313) [6]
  MBC: 1 µg/mL (≈ 3.44 µM)
  MIC: 0.25 µg/mL (≈ 0.861 µM)
JHU-313 containing pPhoU [9]
  MBC: 4 µg/mL (≈ 13.8 µM)
  MIC: 2 µg/mL (≈ 6.89 µM)
JHU-313
  zone of inhibition at 0.5 µg/mL: 31 mm
  zone of inhibition at 1 µg/mL: 38 mm
  zone of inhibition at 2 µg/mL: 42 mm
[11]
  MBC: 1 µg/mL (≈ 3.44 µM)
  MIC: 0.5 µg/mL (≈ 1.72 µM)
